Source: patent US10556902B2 (Asceneuron SA, priority 2016, dated 2020)

Target: His-Tagged hOGA (human O-GlcNAcase) (Homo sapiens (Human), UniProt O60502)
Assay: Human O-GlcNAcase enzyme inhibition assay;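 further: reactions contained 20 nM His-tagged hOGA enzyme with 10 µM FL-GlcNAc substrate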
Assay type: biochemical
Details: OGA enzyme inhibition assay; FL-GlcNAc substrate, pH 6.5; activity classes defined in μM; read-out: OGA IC50
Experimental: Then, 20 nM of His-Tagged hOGA and 10 μM of FL-GlcNAc (Fluorescein mono-beta-D-(2-deoxy-2-N-acetyl) glucopyranoside; Marker Gene Technologies Inc, M1485) were added to the 384-well plate for a final volume of 20 μl.

Chain of His-Tagged hOGA (human O-GlcNAcase) (O60502 whole entry): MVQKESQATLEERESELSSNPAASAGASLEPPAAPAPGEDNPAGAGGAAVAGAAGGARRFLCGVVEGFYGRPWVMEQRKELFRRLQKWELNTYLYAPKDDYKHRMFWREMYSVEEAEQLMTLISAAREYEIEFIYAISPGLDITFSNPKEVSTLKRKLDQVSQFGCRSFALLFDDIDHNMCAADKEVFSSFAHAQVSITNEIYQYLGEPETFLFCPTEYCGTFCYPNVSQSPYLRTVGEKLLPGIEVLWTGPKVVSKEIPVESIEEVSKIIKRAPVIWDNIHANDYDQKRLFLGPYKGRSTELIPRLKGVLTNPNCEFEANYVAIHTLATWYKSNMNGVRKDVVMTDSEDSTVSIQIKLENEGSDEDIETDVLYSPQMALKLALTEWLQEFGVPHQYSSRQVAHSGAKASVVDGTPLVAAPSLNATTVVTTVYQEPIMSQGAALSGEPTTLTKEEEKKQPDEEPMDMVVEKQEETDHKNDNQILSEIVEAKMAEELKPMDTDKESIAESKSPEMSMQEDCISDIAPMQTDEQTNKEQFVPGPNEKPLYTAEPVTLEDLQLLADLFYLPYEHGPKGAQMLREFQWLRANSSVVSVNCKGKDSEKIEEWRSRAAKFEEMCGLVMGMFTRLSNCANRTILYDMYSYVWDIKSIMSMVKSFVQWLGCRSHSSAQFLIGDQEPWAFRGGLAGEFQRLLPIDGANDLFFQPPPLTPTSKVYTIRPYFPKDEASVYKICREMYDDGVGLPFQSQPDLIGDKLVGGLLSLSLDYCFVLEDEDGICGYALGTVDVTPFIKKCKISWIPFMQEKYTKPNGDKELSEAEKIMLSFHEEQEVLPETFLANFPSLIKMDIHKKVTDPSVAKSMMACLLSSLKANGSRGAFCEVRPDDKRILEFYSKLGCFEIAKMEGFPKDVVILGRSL

## CC(=O)N1CCc2nc(N3CCN(C(C)c4ccc5nccnc5c4)CC3)ncc2C1 (racemic) [Example 6, 1-(2-(4-(1-(quinoxalin-6-yl)ethyl)piperazin-1-yl)-7,8-dihydropyrido[4,3-d]pyrimidin-6(5H)-yl)ethan-1-one]
  IC50: 0.05 to 0.2 µM

## CC(c1ccc2nccnc2c1)N1CCN(c2ncc3c(n2)CCNC3)CC1 (racemic) [Example 8, 2-(4-(1-(quinoxalin-6-yl)ethyl)piperazin-1-yl)-5,6,7,8-tetrahydropyrido [4,3-d] pyrimidine]
  IC50: < 0.05 µM

## CC(c1ccc2nccnc2c1)N1CCN(c2ncc3c(n2)CCN(C)C3)CC1 (racemic) [Example 9, 6-methyl-2-(4-(1-(quinoxalin-6-yl)ethyl)piperazin-1-yl)-5,6,7,8-tetrahydropyrido[4,3-d]pyrimidine]
  IC50: < 0.05 µM

## CC(=O)N1CCc2nc(N3CCN(C(C)c4ccc5c(c4)OCC5)CC3)sc2C1 (racemic) [Example 10, 1-(2-(4-(1-(2,3-dihydrobenzofuran-6-yl)ethyl)piperazin-1-yl)-6,7-dihydrothiazolo[5,4-c]pyridin-5(4H)-yl)ethan-1-one]
  IC50: < 0.05 µM

## CC(=O)N1CCc2nc(N3CCN(C(C)c4ccc5nccnc5c4)CC3)sc2C1 (racemic) [Example 11, 1-(2-(4-(1-(quinoxalin-6-yl)ethyl)piperazin-1-yl)-6,7-dihydrothiazolo[5,4-c]pyridin-5(4H)-yl)ethan-1-one]
  IC50: 0.05 to 0.2 µM

## CC(c1ccc2c(c1)OCC2)N1CCN(c2nc3c(s2)C(=O)N(C)CC3)CC1 (racemic) [Example 13, 2-(4-(1-(2,3-dihydrobenzofuran-6-yl)ethyl)piperazin-1-yl)-5-methyl-6,7-dihydrothiazolo[5,4-c]pyridin-4(5H)-one]
  IC50: < 0.05 µM

## CC(c1ccc2nccnc2c1)N1CCN(c2nc3c(s2)C(=O)N(C)CC3)CC1 (racemic) [Example 14, 5-methyl-2-(4-(1-(quinoxalin-6-yl)ethyl)piperazin-1-yl)-6,7-dihydrothiazolo[5,4-c]pyridin-4(5H)-one]
  IC50: 0.2 to 1 µM

## CC(c1ccc2c(c1)OCC2)N1CCN(c2nc3c(s2)CNCC3)CC1 (racemic) [Example 15, 2-(4-(1-(2,3-dihydrobenzofuran-6-yl)ethyl)piperazin-1-yl)-4,5,6,7-tetrahydrothiazolo[5,4-c]pyridine]
  IC50: < 0.05 µM

## CC(c1ccc2c(c1)OCC2)N1CCN(c2nc3c(s2)CN(C)CC3)CC1 (racemic) [Example 16, 2-(4-(1-(2,3-dihydrobenzofuran-6-yl)ethyl)piperazin-1-yl)-5-methyl-4,5,6,7-tetrahydrothiazolo[5,4-c]pyridine]
  IC50: < 0.05 µM

## CC(c1ccc2nccnc2c1)N1CCN(c2nc3c(s2)CNCC3)CC1 (racemic) [Example 19, 2-(4-(1-(quinoxalin-6-yl)ethyl)piperazin-1-yl)-4,5,6,7-tetrahydrothiazolo[5,4-c]pyridine]
  IC50: 0.05 to 0.2 µM

## CC(c1ccc2nccnc2c1)N1CCN(c2nc3c(s2)CN(C)CC3)CC1 (racemic) [Example 20, 5-Methyl-2-(4-(1-(quinoxalin-6-yl)ethyl)piperazin-1-yl)-4,5,6,7-tetrahydrothiazolo[5,4-c]pyridine]
  IC50: 0.05 to 0.2 µM

## CC(c1ccc2nccnc2c1)N1CCN(c2n[nH]c(=O)s2)CC1 (racemic) [Example 21, 5-(4-(1-(quinoxalin-6-yl)ethyl)piperazin-1-yl)-1,3,4-thiadiazol-2(3H)-one]
  IC50: 0.05 to 0.2 µM

## CC(c1ccc2nccnc2c1)N1CCC(c2n[nH]c(=O)o2)CC1 (racemic) [Example 22, 5-(1-(1-(quinoxalin-6-yl)ethyl)piperidin-4-yl)-1,3,4-oxadiazol-2(3H)-one]
  IC50: 0.2 to 1 µM

## Cc1nnc(C2CCN(C(C)c3ccc4c(c3)OCC4)CC2)o1 (racemic) [Example 23, 2-(1-(1-(2,3-dihydrobenzofuran-6-yl)ethyl)piperidin-4-yl)-5-methyl-1,3,4-oxadiazole]
  IC50: < 0.05 µM

## Cc1nnc(C2CCN(C(C)c3ccc4nccnc4c3)CC2)o1 (racemic) [Example 24, 2-methyl-5-(1-(1-(quinoxalin-6-yl)ethyl)piperidin-4-yl)-1,3,4-oxadiazole]
  IC50: 0.2 to 1 µM

## CC(=O)Nc1cnn(C2CCN(C(C)c3ccc4c(c3)OCC4)CC2)c1 (racemic) [Example 25, N-(1-(1-(1-(2,3-dihydrobenzofuran-6-yl)ethyl)piperidin-4-yl)-1H-pyrazol-4-yl)acetamide]
  IC50: 0.05 to 0.2 µM

## CC(=O)Nc1cnn(C2CCN(C(C)c3ccc4nccnc4c3)CC2)c1 (racemic) [Example 27, N-(1-(1-(1-(quinoxalin-6-yl)ethyl)piperidin-4-yl)-1H-pyrazol-4-yl)acetamide]
  IC50: 1 to 10 µM

## CC(c1ccc2c(c1)OCC2)N1CCC(n2cc(CO)cn2)CC1 (racemic) [Example 28, (1-(1-(1-(2,3-dihydrobenzofuran-6-yl)ethyl)piperidin-4-yl)-1H-pyrazol-4-yl) methanol]
  IC50: 0.2 to 1 µM

## CC(c1ccc2c(c1)OCC2)N1CCC(n2cc(C(F)(F)F)cn2)CC1 (racemic) [Example 29, 1-(1-(2,3-Dihydrobenzofuran-6-yl)ethyl)-4-(4-(trifluoromethyl)-1H-pyrazol-1-yl) piperidine]
  IC50: 0.2 to 1 µM

## CC(c1ccc2c(c1)OCC2)N1CCC(n2cc(F)cn2)CC1 (racemic) [Example 30, 1-(1-(2,3-dihydrobenzofuran-6-yl)ethyl)-4-(4-fluoro-1H-pyrazol-1-yl)piperidine]
  IC50: 0.2 to 1 µM

## CCOC(=O)c1cnn(C2CCN(C(C)c3ccc4c(c3)OCC4)CC2)c1 (racemic) [Example 32, Ethyl 1-(1-(1-(2,3-dihydrobenzofuran-6-yl)ethyl)piperidin-4-yl)-1H-pyrazole-4-carboxylate]
  IC50: 0.05 to 0.2 µM

## CC(c1ccc2c(c1)OCC2)N1CCC(n2cc(S(C)(=O)=O)cn2)CC1 (racemic) [Example 34, 1-(1-(2,3-dihydrobenzofuran-6-yl)ethyl)-4-(4-(methylsulfonyl)-1H-pyrazol-1-yl)piperidine]
  IC50: 0.2 to 1 µM

## CC(O)c1ccc(N2CCN(C(C)c3ccc4c(c3)OCC4)CC2)nn1 (racemic) [Example 35, 1-(6-(4-(1-(2,3-dihydrobenzofuran-6-yl)ethyl)piperazin-1-yl)pyridazin-3-yl)ethan-1-ol]
  IC50: < 0.05 µM

## CC(O)c1ccc(N2CCN(C(C)c3ccc4nccnc4c3)CC2)nn1 (racemic) [Example 36, 1-(6-(4-(1-(quinoxalin-6-yl)ethyl)piperazin-1-yl)pyridazin-3-yl)ethan-1-ol]
  IC50: 0.2 to 1 µM

## CC(c1ccc2nccnc2c1)N1CCN(c2nnc(CO)s2)CC1 (racemic) [Example 37, (5-(4-(1-(quinoxalin-6-yl)ethyl)piperazin-1-yl)-1,3,4-thiadiazol-2-yl)methanol]
  IC50: 0.2 to 1 µM

## CC(c1ccc2c(c1)OCC2)N1CCN(c2ccc(C(F)(F)F)nn2)CC1 (racemic) [Example 40, 3-(4-(1-(2,3-dihydrobenzofuran-6-yl)ethyl)piperazin-1-yl)-6-(trifluoromethyl)pyridazine]
  IC50: < 0.05 µM

## CC(c1ccc2nccnc2c1)N1CCN(c2ccc(F)nn2)CC1 (racemic) [Example 41, 6-(1-(4-(6-Fluoropyridazin-3-yl)piperazin-1-yl)ethyl)quinoxaline]
  IC50: 0.2 to 1 µM

## CC(c1ccc2nccnc2c1)N1CCN(c2ccc(C(F)(F)F)nn2)CC1 (racemic) [Example 42, 6-(1-(4-(6-(trifluoromethyl)pyridazin-3-yl)piperazin-1-yl)ethyl)quinoxaline]
  IC50: 0.2 to 1 µM

## CC(c1ccc2nccnc2c1)N1CCN(c2ccc(I)nn2)CC1 (racemic) [Example 43]
  IC50: 0.2 to 1 µM
